The values below come from ChEMBL document CHEMBL1201862, “PubChem BioAssay data set” (2004).

Test systems include BT-549; OVCAR-3; RXF 393; UACC-62; SK-OV-3; CAKI-1; NCI-H522; 786-0; MDA-MB-435; NCI-H460; HCT-15; M14; CCRF-CEM; Hs-578T; TK-10; SNB-75; HCT-116; SF-539; U-251.
What all share (assay): growth of human tumour cells (NCI), 48 h

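In this assay, cells in 96-well plates receive the compound at five concentrations for 48 hours. Endpoints are linearly interpolated between the surrounding concentrations. GI50 = concentration required for 50% inhibition of growth.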 Active and inactive are the calls of the source. No stated cut-off is given here; in the data, active = GI50 up to about 1.1 µM and inactive = higher. A value given as a limit tells only on which side of the number the result lay.

With `CCc1cn2c(/C=N/N=C(N)N)c(-c3cc(C)c(Cl)cc3Cl)nc2s1`, the GI50 was 1.64 µM (inactive) in the assay on BT-549; 1.48 µM (inactive) in the assay with OVCAR-3; 1.74 µM (inactive) with RXF 393; 1.42 µM (inactive) with UACC-62; 1.7 µM (inactive) in the assay on SK-OV-3; 1.27 µM (inactive) in the assay with CAKI-1. The GI50 is 1.87 µM (inactive) in the assay with NCI-H522; 0.847 µM (active) in the assay with 786-0; 1.41 µM (inactive) in the assay on MDA-MB-435; 1.86 µM (inactive) in the assay on NCI-H460; 1.62 µM in the assay on HCT-15; 1.65 µM (inactive) in the assay on M14. Also, the GI50 is 0.209 µM (active) in the assay on CCRF-CEM; 1.71 µM (inactive) in the assay with Hs-578T; 1.97 µM (inactive) in the assay with TK-10; 1.55 µM (inactive) in the assay on SNB-75; 0.785 µM (active) in the assay on HCT-116; 1.74 µM (inactive) in the assay on SF-539. Moreover, the GI50 with U-251 was 1.53 µM (inactive).
As to `O=C(Cc1ccccc1CCO)NCCc1ccccc1`, the GI50 in the assay on BT-549, in the assay with OVCAR-3, in the assay on RXF 393, with UACC-62, in the assay on SK-OV-3 and in the assay on CAKI-1 was > 100 µM (inactive) each time. The GI50 with NCI-H522 is > 100 µM (inactive); in the assay with 786-0, > 100 µM (inactive); with MDA-MB-435 it was > 100 µM (inactive); in the assay with NCI-H460 it was > 100 µM (inactive); in the assay with HCT-15 it was more than 100 µM; with M14, > 100 µM (inactive). Also, the GI50 in the assay on CCRF-CEM, with Hs-578T, in the assay with TK-10, in the assay with SNB-75, with HCT-116 and in the assay on SF-539 was > 100 µM (inactive) in each case. Further, the GI50 in the assay on U-251 is > 100 µM (inactive).
Consider `C[C@H]1C2Cc3cc(N)ccc3[C@@]1(C)CCN2CCc1ccccc1`, for which the GI50 with BT-549 is > 100 µM (inactive); in the assay with OVCAR-3 it was 15.9 µM (inactive); in the assay with RXF 393, 33.3 µM (inactive); in the assay on UACC-62 it was 45.5 µM (inactive); with SK-OV-3, 24 µM (inactive); with CAKI-1 it was 64.4 µM (inactive). Moreover, the GI50 was 13.2 µM (inactive) with NCI-H522; 49.9 µM (inactive) in the assay on 786-0; 41.9 µM (inactive) with MDA-MB-435; 33.1 µM (inactive) in the assay on NCI-H460; 25.2 µM with HCT-15; 20.9 µM (inactive) in the assay with M14. For the same compound, the GI50 with CCRF-CEM is 33.2 µM (inactive); in the assay with Hs-578T, 96.6 µM (inactive); in the assay with TK-10, 78 µM (inactive); in the assay with SNB-75, 85.1 µM (inactive); in the assay with HCT-116, 41.8 µM (inactive); with SF-539, 45.2 µM (inactive). Also, in the assay with U-251, the GI50 is 43.8 µM (inactive).
For `CC[C@@]1(O)C(=O)OCc2c1cc1n(c2=O)Cc2c-1nc1ccccc1c2/C=N/NC(=O)C[N+](C)(C)C`, the GI50 is 15.4 µM (inactive) in the assay with BT-549; 38.3 µM (inactive) with OVCAR-3; 0.697 µM (active) in the assay with RXF 393; 0.121 µM (active) in the assay with UACC-62; 2.1 µM (inactive) in the assay on SK-OV-3; 0.578 µM (active) with CAKI-1. Also, the GI50 in the assay with NCI-H522 was 2.26 µM (inactive); with 786-0, 0.662 µM (active); in the assay with MDA-MB-435 it was 16.1 µM (inactive); with NCI-H460, 0.15 µM (active); in the assay with HCT-15 it was 14 µM; in the assay on M14, 1 µM (active). Moreover, the GI50 was 0.123 µM (active) in the assay with CCRF-CEM; > 100 µM (inactive) in the assay with Hs-578T; > 80.2 µM (inactive) with TK-10; 0.525 µM (active) in the assay on SNB-75; 2.3 µM (inactive) in the assay on HCT-116; 0.386 µM (active) with SF-539. In addition, the GI50 in the assay on U-251 was 1.11 µM (active).
Regarding `O=C1Nc2ccc(Br)cc2/C1=N/Nc1ccccc1[N+](=O)[O-]`, the GI50 was 30.7 µM (inactive) in the assay on BT-549; 10.7 µM (inactive) in the assay on OVCAR-3; 32.7 µM (inactive) in the assay with RXF 393; 22.2 µM (inactive) in the assay with UACC-62; 24 µM (inactive) with SK-OV-3; 14.2 µM (inactive) in the assay on CAKI-1. The GI50 was 15.5 µM (inactive) with NCI-H522; 24.6 µM (inactive) with 786-0; 21.1 µM (inactive) in the assay on MDA-MB-435; 9.73 µM (inactive) with NCI-H460; 20.5 µM in the assay with HCT-15; 13.9 µM (inactive) with M14. The GI50 was 12.5 µM (inactive) in the assay with CCRF-CEM; 16.1 µM (inactive) in the assay with Hs-578T; 10.3 µM (inactive) with TK-10; 15.8 µM (inactive) in the assay on SNB-75; 32.4 µM (inactive) with HCT-116; > 100 µM (inactive) in the assay with SF-539. For the same compound, in the assay with U-251, the GI50 is 35.4 µM (inactive).
On to `C=CC(C)(C)NC(C(=O)N1CCC[C@H]1c1nc(-c2nc(C(=O)OCC=C(C)C)c(C)o2)c(C)o1)C(C)C` (some centres not stated), for which the GI50 in the assay on BT-549 is > 100 µM (inactive); in the assay with OVCAR-3, 46.6 µM (inactive); with RXF 393, > 55.2 µM (inactive); in the assay on UACC-62, 37.8 µM (inactive); in the assay on SK-OV-3, > 83 µM (inactive); with CAKI-1, > 55.2 µM (inactive). Moreover, the GI50 is > 100 µM (inactive) in the assay with NCI-H522; > 58.1 µM (inactive) with 786-0; > 45.1 µM (inactive) in the assay on MDA-MB-435; 31.9 µM (inactive) in the assay on NCI-H460; more than 52.1 µM in the assay on HCT-15; > 62.2 µM (inactive) in the assay with M14. Moreover, the GI50 was > 59.7 µM (inactive) in the assay with CCRF-CEM; 81.5 µM (inactive) with Hs-578T; > 57.8 µM (inactive) with TK-10; 33.3 µM (inactive) in the assay on SNB-75; > 60.7 µM (inactive) in the assay on HCT-116; > 48.2 µM (inactive) with SF-539. Besides, the GI50 with U-251 is > 48.2 µM (inactive).
With `CCCCCCCCCCOCCOCCOCCOCCCCC(O)CCCCCCCC1=C[C@H](C)OC1=O` (some centres not stated), the GI50 with BT-549 was 0.959 µM (active); in the assay on OVCAR-3 it was 16.2 µM (inactive); with RXF 393, 10.9 µM (inactive); in the assay with UACC-62 it was 13.2 µM (inactive); with SK-OV-3, 16.5 µM (inactive); in the assay on CAKI-1, 14.1 µM (inactive). For the same compound, the GI50 was 6.34 µM (inactive) in the assay on NCI-H522; 18.6 µM (inactive) with 786-0; 12 µM (inactive) in the assay on MDA-MB-435; 7.89 µM (inactive) with NCI-H460; 12.7 µM with HCT-15; 14.3 µM (inactive) with M14. The GI50 in the assay with CCRF-CEM is 2.79 µM (inactive); in the assay with Hs-578T, 14.8 µM (inactive); with TK-10, 10.2 µM (inactive); in the assay on SNB-75 it was 11.8 µM (inactive); in the assay on HCT-116 it was 9.53 µM (inactive); in the assay with SF-539 it was 12.1 µM (inactive). In addition, the GI50 in the assay on U-251 was 11.1 µM (inactive).
On to `CC(=O)c1c2c(cc3c1CC1(C3)Cc3ccc4c(c3C1=O)CCC4)CCC2` (configuration not stated), for which the GI50 was 62.4 µM (inactive) with BT-549; > 100 µM (inactive) with OVCAR-3; 9.64 µM (inactive) in the assay on RXF 393; 44.5 µM (inactive) in the assay on UACC-62; > 100 µM (inactive) with SK-OV-3; 14.9 µM (inactive) with CAKI-1. For the same compound, the GI50 in the assay with NCI-H522 was 0.74 µM (active); in the assay on 786-0, > 100 µM (inactive); in the assay with MDA-MB-435 it was 8.05 µM (inactive); in the assay on NCI-H460 it was 38.6 µM (inactive); with HCT-15, 16.1 µM; in the assay on M14 it was 43 µM (inactive). The GI50 in the assay with CCRF-CEM was 19.3 µM (inactive); in the assay with Hs-578T, 13.5 µM (inactive); with TK-10 it was 11.1 µM (inactive); in the assay on SNB-75 it was 16.9 µM (inactive); with HCT-116, 10.8 µM (inactive); in the assay with SF-539, > 100 µM (inactive). Besides, the GI50 with U-251 was 56.9 µM (inactive).
